Measurements reported in BigSolDB 2.1.

O=P(O)(O)c1ccccc1
Details | solubility (mole fraction)
in 1,4-dioxane, 288.15 K | 0.186
in 1,4-dioxane, 293.15 K | 0.208
in 1,4-dioxane, 298.15 K | 0.224
in 1,4-dioxane, 303.15 K | 0.243
in 1,4-dioxane, 308.15 K | 0.264
in 1,4-dioxane, 313.15 K | 0.286
in 1,4-dioxane, 318.15 K | 0.307
in 1,4-dioxane, 323.15 K | 0.336
in 1,4-dioxane, 328.15 K | 0.36
in 1,4-dioxane, 333.15 K | 0.388
in 2-butoxyethanol, 278.15 K | 0.199
in 2-butoxyethanol, 283.15 K | 0.208
in 2-butoxyethanol, 288.15 K | 0.218
in 2-butoxyethanol, 293.15 K | 0.231
in 2-butoxyethanol, 298.15 K | 0.243
in 2-butoxyethanol, 303.15 K | 0.258
in 2-butoxyethanol, 308.15 K | 0.27
in 2-butoxyethanol, 313.15 K | 0.283
in 2-butoxyethanol, 318.15 K | 0.298
in 2-butoxyethanol, 323.15 K | 0.317
in 2-butoxyethanol, 328.15 K | 0.334
in 2-butoxyethanol, 333.15 K | 0.355
in 2-ethoxyethanol, 278.15 K | 0.305
in 2-ethoxyethanol, 283.15 K | 0.317
in 2-ethoxyethanol, 288.15 K | 0.327
in 2-ethoxyethanol, 293.15 K | 0.339
in 2-ethoxyethanol, 298.15 K | 0.35
in 2-ethoxyethanol, 303.15 K | 0.363
in 2-ethoxyethanol, 308.15 K | 0.378
in 2-ethoxyethanol, 313.15 K | 0.391
in 2-ethoxyethanol, 318.15 K | 0.404
in 2-ethoxyethanol, 323.15 K | 0.42
in 2-ethoxyethanol, 328.15 K | 0.439
in 2-ethoxyethanol, 333.15 K | 0.454
in 2-methoxyethanol, 278.15 K | 0.342
in 2-methoxyethanol, 283.15 K | 0.348
in 2-methoxyethanol, 288.15 K | 0.359
in 2-methoxyethanol, 293.15 K | 0.371
in 2-methoxyethanol, 298.15 K | 0.383
in 2-methoxyethanol, 303.15 K | 0.397
in 2-methoxyethanol, 308.15 K | 0.408
in 2-methoxyethanol, 313.15 K | 0.425
in 2-methoxyethanol, 318.15 K | 0.439
in 2-methoxyethanol, 323.15 K | 0.453
in 2-methoxyethanol, 328.15 K | 0.468
in 2-methoxyethanol, 333.15 K | 0.483
in 2-propoxyethanol, 278.15 K | 0.244
in 2-propoxyethanol, 283.15 K | 0.257
in 2-propoxyethanol, 288.15 K | 0.266
in 2-propoxyethanol, 293.15 K | 0.28
in 2-propoxyethanol, 298.15 K | 0.295
in 2-propoxyethanol, 303.15 K | 0.307
in 2-propoxyethanol, 308.15 K | 0.318
in 2-propoxyethanol, 313.15 K | 0.336
in 2-propoxyethanol, 318.15 K | 0.349
in 2-propoxyethanol, 323.15 K | 0.368
in 2-propoxyethanol, 328.15 K | 0.382
in 2-propoxyethanol, 333.15 K | 0.401
in acetone, 273.15 K | 0.0872
in acetone, 278.15 K | 0.101
in acetone, 283.15 K | 0.113
in acetone, 288.15 K | 0.13
in acetone, 293.15 K | 0.144
in acetone, 298.15 K | 0.162
in acetone, 303.15 K | 0.178
in acetone, 308.15 K | 0.201
in acetone, 313.15 K | 0.223
in acetone, 318.15 K | 0.249
in ethanol, 278.15 K | 0.288
in ethanol, 283.15 K | 0.295
in ethanol, 288.15 K | 0.305
in ethanol, 293.15 K | 0.314
in ethanol, 298.15 K | 0.326
in ethanol, 303.15 K | 0.334
in ethanol, 308.15 K | 0.347
in ethanol, 313.15 K | 0.357
in ethanol, 318.15 K | 0.371
in ethanol, 323.15 K | 0.383
in ethanol, 328.15 K | 0.394
in ethanol, 333.15 K | 0.407
in isopropanol, 278.15 K | 0.24
in isopropanol, 283.15 K | 0.251
in isopropanol, 288.15 K | 0.265
in isopropanol, 293.15 K | 0.277
in isopropanol, 298.15 K | 0.291
in isopropanol, 303.15 K | 0.307
in isopropanol, 308.15 K | 0.317
in isopropanol, 313.15 K | 0.331
in isopropanol, 318.15 K | 0.346
in isopropanol, 323.15 K | 0.361
in isopropanol, 328.15 K | 0.376
in isopropanol, 333.15 K | 0.394
in methanol, 273.15 K | 0.29
in methanol, 278.15 K | 0.299
in methanol, 283.15 K | 0.307
in methanol, 288.15 K | 0.315
in methanol, 293.15 K | 0.324
in methanol, 298.15 K | 0.335
in methanol, 303.15 K | 0.347
in methanol, 308.15 K | 0.357
in methanol, 313.15 K | 0.369
in methanol, 318.15 K | 0.38
in n-butanol, 278.15 K | 0.193
in n-butanol, 283.15 K | 0.204
in n-butanol, 288.15 K | 0.22
in n-butanol, 293.15 K | 0.232
in n-butanol, 298.15 K | 0.248
in n-butanol, 303.15 K | 0.26
in n-butanol, 308.15 K | 0.273
in n-butanol, 313.15 K | 0.29
in n-butanol, 318.15 K | 0.304
in n-butanol, 323.15 K | 0.321
in n-butanol, 328.15 K | 0.337
in n-butanol, 333.15 K | 0.354
in n-heptanol, 278.15 K | 0.122
in n-heptanol, 283.15 K | 0.133
in n-heptanol, 288.15 K | 0.143
in n-heptanol, 293.15 K | 0.158
in n-heptanol, 298.15 K | 0.17
in n-heptanol, 303.15 K | 0.183
in n-heptanol, 308.15 K | 0.196
in n-heptanol, 313.15 K | 0.212
in n-heptanol, 318.15 K | 0.227
in n-heptanol, 323.15 K | 0.243
in n-heptanol, 328.15 K | 0.26
in n-heptanol, 333.15 K | 0.278
in n-hexanol, 278.15 K | 0.134
in n-hexanol, 283.15 K | 0.146
in n-hexanol, 288.15 K | 0.159
in n-hexanol, 293.15 K | 0.174
in n-hexanol, 298.15 K | 0.188
in n-hexanol, 303.15 K | 0.202
in n-hexanol, 308.15 K | 0.218
in n-hexanol, 313.15 K | 0.23
in n-hexanol, 318.15 K | 0.245
in n-hexanol, 323.15 K | 0.26
in n-hexanol, 328.15 K | 0.278
in n-hexanol, 333.15 K | 0.297
in n-octanol, 278.15 K | 0.0997
in n-octanol, 283.15 K | 0.11
in n-octanol, 288.15 K | 0.123
in n-octanol, 293.15 K | 0.134
in n-octanol, 298.15 K | 0.147
in n-octanol, 303.15 K | 0.161
in n-octanol, 308.15 K | 0.177
in n-octanol, 313.15 K | 0.189
in n-octanol, 318.15 K | 0.202
in n-octanol, 323.15 K | 0.218
in n-octanol, 328.15 K | 0.234
in n-octanol, 333.15 K | 0.252
in n-pentanol, 278.15 K | 0.161
in n-pentanol, 283.15 K | 0.175
in n-pentanol, 288.15 K | 0.186
in n-pentanol, 293.15 K | 0.199
in n-pentanol, 298.15 K | 0.212
in n-pentanol, 303.15 K | 0.226
in n-pentanol, 308.15 K | 0.242
in n-pentanol, 313.15 K | 0.258
in n-pentanol, 318.15 K | 0.273
in n-pentanol, 323.15 K | 0.287
in n-pentanol, 328.15 K | 0.308
in n-pentanol, 333.15 K | 0.323
in n-propanol, 278.15 K | 0.236
in n-propanol, 283.15 K | 0.248
in n-propanol, 288.15 K | 0.262
in n-propanol, 293.15 K | 0.271
in n-propanol, 298.15 K | 0.286
in n-propanol, 303.15 K | 0.296
in n-propanol, 308.15 K | 0.311
in n-propanol, 313.15 K | 0.321
in n-propanol, 318.15 K | 0.332
in n-propanol, 323.15 K | 0.347
in n-propanol, 328.15 K | 0.361
in n-propanol, 333.15 K | 0.375
